Assay results taken from patent US10413541B2, “Oxabicycloheptanes and oxabicycloheptenes for the treatment of depressive and stress disorders” (LIXTE BIOTECHNOLOGY, INC., priority 2015, dated 2019).
“Also recorded” adds a separate entry of the source. Read-outs that look alike come from different tables or passages of the source.

Tests used:
Format in all cases: cell-based, mice
[1] = tested on: GABAB-GIRK currents in LHb neurons; details: for I-baclofen, residual current independent of GIRKs: barium 1 mM in the bath
LHb neurons [2] = test: Cell-attached recording of spontaneous firing of LHb neurons; details: baclofen application, then CGP54626 10 μM
Procedure: (§1) Animals were anesthetized with Ketamine/Xylazine (50 mg/10 mg Kg-1 i.p.; Sigma-Aldrich, France). The preparation of LHb-containing brain slices was done in bubbled ice-cold 95% O2/5% CO2-equilibrated solution containing (in mM): cholineCl 110; glucose 25; NaHCO3 25; MgCl2 7; ascorbic acid 11.6; Na+-pyruvate 3.1; KCl 2.5; NaH2PO4 1.25; CaCl2 0.5. Sagittal slices (250 μm) were stored at room temperature in 95% O2/5% CO2-equilibrated artificial cerebrospinal fluid (ACSF) containing (in mM): NaCl 124; NaHCO3 26.2; glucose 11; KCl 2.5; CaCl2 2.5; MgCl2 1.3; NaH2PO4 1. Recordings (flow rate of 2.5 ml/min) were made under an Olympus-BX51 microscope (Olympus, France) at 32° C. Currents were amplified, filtered at 5 kHz and digitized at 20 kHz. Access resistance was monitored by a step of −4 mV (0.1 Hz). Experiments were discarded if the access resistance increased more than 20%.
(§2) The internal solution to measure GABAB-GIRK currents and neuronal excitability contained 140 mM potassium gluconate, 4 mM NaCl, 2 mM MgCl2, 1.1 mM EGTA, 5 mM HEPES, 2 mM Na2ATP, 5 mM sodium creatine phosphate, and 0.6 mM Na3GTP (pH 7.3), with KOH. When we measured the synaptic inhibitory or excitatory release the internal solution contained (in mM): CsCl 130; NaCl 4; MgCl2 2; EGTA 1.1; HEPES 5; Na2ATP 2; Na+-creatine-phosphate 5; Na3GTP 0.6, and spermine 0.1. The liquid junction potential was −3 mV. For cell-attached recordings the internal solution consisted in ACSF.
(§3) Cell-attached recordings in ACSF were performed in GΩ seal with a Vc=0 and Hc=0. Whole-cell voltage clamp recordings were achieved to measure GABAB-GIR currents in presence of Bicuculine (10 μM), NBQX (20 μM) and AP5 (50 μM). […] GABAB-GIRK currents were confirmed by antagonism with either 10 μM of CGP54626, a specific GABAB antagonist or 1 mM Ba^2, a selective inhibitor of inward rectifiers. For the GTPγS experiment, 100 μM of GTPγS was added to the internal solution in place of Na3GTP.

GIRK channels = test: GTPγS-induced Ba2+-sensitive outward current (I-GTPγS) in LHb neurons of brain slices; details: GTPγS 100 μM in the internal solution
Procedure: as §1, §3

LHb neurons [3] = test: Current-clamp excitability (evoked action potentials, input-output curve) of LHb neurons in slices; details: baclofen bath application, saturating dose
Procedure: as §1, §2
For the Okadaic acid (OA) and the CaMKII inhibitor KN93 experiments, respectively 100 nM of OA or 10 μM of KN93 were added in the internal solution. For the PP2A inhibitor LB100 experiments, LB100 (0.1 μM) was applied in the bath. Miniature excitatory postsynaptic currents (mEPSCs) were recorded in voltage-clamp mode at −60 mV in presence of bicuculine (10 μM) and TTX (1 μM). Miniature inhibitory postsynaptic currents (mIPSCs) were recorded (−60 mV) in presence of NBQX (20 μM) and TTX (1 μM). EPSCs and IPSCs were evoked through an ACSF filled monopolar glass electrode placed 200 μm from the recording site in the stria medullaris. AMPA:NMDA ratios of evoked-EPSC were obtained by AMPA-EPSC −60 mV/NMDA-EPSCs at +40 mV. Rectification Index (RI) was computed by […]-60/AMPA-EPSC+40. For the experiments in which high-frequency stimulation trains were used to determine presynaptic release probability, QX314 (5 mM) was included in the internal solution to prevent the generation of sodium spikes. Current-clamp experiments, were performed by a series of current steps (negative to positive) injected to induce action potentials (5-10 pA injection current per step, 800 ms).

[4] = KN93 10 μM intracellular dialysis
[5] = Okadaic acid 100 nM intracellular dialysis

## C[C@H](NC[C@H](O)CP(=O)(O)CC1CCCCC1)c1ccc(Cl)c(Cl)c1 [CGP54626]
[1]; CGP54626 10 μM
  Reversal of I-baclofen: fully reversed; also recorded: readily reversed
LHb neurons [2]; CTRL mice
  Firing rate of LHb neurons: 3.62±0.65 Hz
LHb neurons [2]; FsE mice
  Firing rate of LHb neurons: 8.23±2.25 Hz

## Nc1nc2c(ncn2[C@@H]2O[C@H](COP(=O)(O)OP(=O)(O)OP(O)(O)=S)[C@@H](O)[C@H]2O)c(=O)[nH]1 [GTPγS, reference compound]
GIRK channels; CTRL mice
  GTPγS-evoked Ba2+-sensitive outward current: 92.55±21.83 pA
GIRK channels; FsE mice
  GTPγS-evoked Ba2+-sensitive outward current: 38.00±5.27 pA

## COc1ccc(S(=O)(=O)N(CCO)c2ccccc2CN(C)C/C=C/c2ccc(Cl)cc2)cc1 [KN93]
[1]; KN93 10 μM in the internal solution, CTRL mice
  I-baclofen current: 106.3±18.37 pA
[1]; [4]
  FsE induced reduction of GABAB-GIRK currents: failed to recover; also recorded: does not affect
  I-Baclofen at baseline (control mice): did not affect

## C=C1[C@@H](O)[C@@H]2O[C@]3(CC[C@H](/C=C/[C@@H](C)[C@@H]4CC(C)=C[C@@]5(O[C@H](C[C@@](C)(O)C(=O)O)CC[C@H]5O)O4)O3)CC[C@H]2O[C@@H]1[C@@H](O)C[C@H](C)[C@H]1O[C@@]2(CCCCO2)CC[C@H]1C [Okadaic Acid]
[1]; Okadaic Acid 100 nM in the internal solution, CTRL mice
  I-baclofen current: 130.7±25.25 pA
[1]; Okadaic Acid 100 nM in the internal solution, FsE mice
  I-baclofen current: 120.4±25.61 pA
[1]; Okadaic Acid 100 nM intracellular dialysis, listed as OA
  I-baclofen CTRL vs FsE: comparable to control mice
[1]; [5]
  I-Baclofen at baseline (control mice): comparable to naïve condition
  I-baclofen CTRL vs FsE: no difference between groups

## NCC(CC(=O)O)c1ccc(Cl)cc1 (centres unmarked) [baclofen]
[1]; 1 h after exposure to fox urine (OPE mice)
  I baclofen: 47.4±7.9
[1]; CTRL mice of odor predator exposure paradigm
  I baclofen: 110.5±29.1
[1]; CTRL mice of restraint stress procedure
  I-baclofen: 121.7±14.8
[1]; baclofen 100 μM, FsE mice, 1 hour after
  I-baclofen: 55.4±7.2 pA
[1]; baclofen 100 μM, FsE mice, 1 day after
  I-baclofen: 59.8±9.6 pA
[1]; baclofen 100 μM, FsE mice, 7 days after
  I-baclofen: 40.1±9.0 pA
[1]; baclofen 100 μM, FsE mice, 14 days after
  I-baclofen: 39.6±6.6 pA
[1]; baclofen 100 μM, FsE mice, 30 days after
  I-baclofen: 133.0±26.1 pA
[1]; CTRL mice
  I-baclofen, residual current independent of GIRKs: 21.3±3.7
[1]; FsE mice
  I-baclofen, residual current independent of GIRKs: 21.3±9.1
[1]; restraint stress (RS) mice, 1 h after the procedure
  I-baclofen: 68.3±15.3
LHb neurons [2]; CTRL mice
  Firing rate of LHb neurons: 0.33±0.11 Hz
LHb neurons [2]; FsE mice
  Firing rate of LHb neurons: 4.89±1.40 Hz
LHb neurons [3]; FsE animals
  Firing of LHb neurons evoked by current steps (20 pA): only partially decreased
LHb neurons [3]; control mice
  Firing of LHb neurons evoked by current steps (20 pA): significantly depressed

## [Ba+2] [barium]
[1]; barium 1 mM
  Effect on I-Baclofen: abolished
